# Data: ChEMBL document CHEMBL5550223, “Restoration of the Lost Human Beta Defensin-1 Protein in Cancer as a Strategy to Improve the Efficacy of Chemotherapy” (J Med Chem, 2024)
# Calls of active or inactive are those of the source. The rule behind the calls is not given here. Positions of bridges follow the written chain, without caps; N, C: chain ends. Residues, ends and D or L forms follow the SMILES beside them.
# Assays:
# MDA-MB-231 [1] = assay: Activation of CD95 cell death pathway in Fas-resistant human MDA-MB-231 cells pretreated for 6 hrs followed by treated with anti-Fas antibody assessed as increase in CD95 expression measured after 24 hrs by FACS analysis; assay type: functional, cell-based
# [2] = Cytotoxicity against human iPSC cells assessed as cell death measured by MTT assay; assay type: functional, cell-based
# DU-145 [3] = assay: Cytotoxicity against human DU-145 cells assessed as cell death in presence of doxorubicin measured by MTT assay; assay type: functional, cell-based
# [4] = Cytotoxicity against human iPSC cells assessed as cell death in presence of docetaxel measured by MTT assay; assay type: functional, cell-based
# MDA-MB-231 [5] = assay: In vivo antitumor activity against human MDA-MB-231 cells expressing FLuc-EGFP fusion protein xenografted in NOD-SCID mouse assessed as tumor regression at 50 mg/kg, ip measured upto day 13 by optical imaging based assay relative to control; assay type: functional, organism-based; details: time 13.0 day
# MDA-MB-231 [6] = assay: Cytotoxicity against human MDA-MB-231 cells assessed as cell death measured by MTT assay; assay type: functional, cell-based
# [7] = Toxicity in NOD-SCID mouse xenografted in human MDA-MB-231 cells assessed as liver histology at 200 mg/kg, ip measured upto day 13 by H and E staining based assay; assay type: organism-based; details: in vivo
# DU-145 [8] = assay: Cytotoxicity against human DU-145 cells assessed as cell death in presence of docetaxel measured by MTT assay; assay type: functional, cell-based
# PC-3 [9] = assay: Cytotoxicity against human PC-3 cells assessed as dead cells at 30 uM measured after 24 to 72 hrs by FACS based Calcein A/EtBr-dimer LIVE/DEAD cell staining kit; assay type: functional; details: time 24-72 hrs
# [10] = Cytotoxicity against human ABC-TC3995 cells assessed as cell death measured by MTT assay; assay type: functional, cell-based
# PC-3 [11] = assay: Cytotoxicity against human PC-3 cells assessed as dead cells measured after 24 to 72 hrs by FACS based Calcein A/EtBr-dimer LIVE/DEAD cell staining kit; assay type: functional
# MDA-MB-231 [12] = assay: In vivo antitumor activity against human MDA-MB-231 cells expressing FLuc-EGFP fusion protein xenografted in NOD-SCID mouse assessed as tumor regression at 200 mg/kg, ip measured upto day 13 by optical imaging based assay relative to control; assay type: functional, organism-based; details: time 13.0 day
# MDA-MB-231 [13] = assay: In vivo antitumor activity against human MDA-MB-231 cells expressing FLuc-EGFP fusion protein xenografted in NOD-SCID mouse assessed as loss of cellularity of tumor at 200 mg/kg, ip measured upto day 13 by H and E staining based assay; assay type: functional, organism-based
# DU-145 [14] = assay: Cytotoxicity against human DU-145 cells assessed as cell death measured by MTT assay; assay type: functional, cell-based
# MDA-MB-231 [15] = assay: Synergistic cytotoxicity against Fas-resistant human MDA-MB-231 cells assessed as cell death at 10 uM in presence of 3 ug/ml doxorubicin measured after 24 to 72 hrs by fluorescent microscopy; assay type: functional; details: time 24-72 hrs
# [16] = Toxicity in NOD-SCID mouse xenografted in human MDA-MB-231 cells assessed as kidney histology at 200 mg/kg, ip measured upto day 13 by H and E staining based assay; assay type: organism-based; details: in vivo, 312 h, time 13 day
# PC-3 [17] = assay: Cytotoxicity against human PC-3 cells assessed as cell death in presence of doxorubicin measured by MTT assay; assay type: functional, cell-based
# [18] = Cytotoxicity against human ABC-TC3995 cells assessed as cell death in presence of doxorubicin measured by MTT assay; assay type: functional, cell-based
# [19] = Cytotoxicity against human ABC-TC3995 cells assessed as cell death in presence of docetaxel measured by MTT assay; assay type: functional, cell-based
# PC-3 [20] = assay: Cytotoxicity against human PC-3 cells assessed as dead cells at 60 uM measured after 24 to 72 hrs by FACS based Calcein A/EtBr-dimer LIVE/DEAD cell staining kit; assay type: functional; details: time 24-72 hrs
# MDA-MB-231 [21] = assay: In vivo antitumor activity against human MDA-MB-231 cells expressing FLuc-EGFP fusion protein xenografted in NOD-SCID mouse assessed as tumor regression at 100 mg/kg, ip measured upto day 13 by optical imaging based assay relative to control; assay type: functional, organism-based; details: time 13.0 day
# MDA-MB-231 [22] = assay: Cytotoxicity against human MDA-MB-231 cells assessed as cell death in presence of docetaxel measured by MTT assay; assay type: functional, cell-based
# [23] = Cytotoxicity against human iPSC cells assessed as cell death in presence of doxorubicin measured by MTT assay; assay type: functional, cell-based
# PC-3 [24] = assay: Cytotoxicity against human PC-3 cells assessed as cell death measured by MTT assay; assay type: functional, cell-based
# PC-3 [25] = assay: Cytotoxicity against human PC-3 cells assessed as cell death in presence of docetaxel measured by MTT assay; assay type: functional, cell-based
# [26] = Toxicity in NOD-SCID mouse xenografted in human MDA-MB-231 cells assessed as heart histology at 200 mg/kg, ip measured upto day 13 by H and E staining based assay; assay type: organism-based; details: in vivo
# LNCaP [27] = assay: Cytotoxicity against human LNCaP cells assessed as cell death measured by MTT assay; assay type: functional, cell-based
# MDA-MB-231 [28] = assay: Cytotoxicity against human MDA-MB-231 cells assessed as cell death in presence of doxorubicin measured by MTT assay; assay type: functional, cell-based
# LNCaP [29] = assay: Cytotoxicity against human LnCAP cells assessed as cell death in presence of doxorubicin measured by MTT assay; assay type: functional, cell-based
# LNCaP [30] = assay: Cytotoxicity against human LNCaP cells assessed as cell death in presence of docetaxel measured by MTT assay; assay type: functional, cell-based
# MDA-MB-231 [31] = assay: Synergistic cytotoxicity against Fas-resistant human MDA-MB-231 cells assessed as cell death at 10 uM in presence of 1 to 3 ug/ml doxorubicin measured after 24 to 72 hrs by fluorescent microscopy; assay type: functional, cell-based; details: time 24-72 hrs
structure (smiles),measurement,setting,value
CC[C@H](C)[C@H](NC(=O)[C@H](CCCCN)NC(=O)[C@@H](NC(=O)[C@H](Cc1ccccc1)NC(=O)[C@@H](NC(=O)[C@@H]1CCCN1C(=O)[C@H](CS)NC(=O)[C@H](C)NC(=O)[C@H](CO)NC(=O)[C@H](Cc1ccc(O)cc1)NC(=O)[C@H](CC(C)C)NC(=O)[C@H](CS)NC(=O)[C@H](CCC(N)=O)NC(=O)CNC(=O)CNC(=O)[C@H](CO)NC(=O)[C@H](CO)NC(=O)[C@@H](NC(=O)[C@H](CS)NC(=O)[C@H](CC(N)=O)NC(=O)[C@H](Cc1ccc(O)cc1)NC(=O)[C@H](Cc1c[nH]cn1)NC(=O)[C@@H](N)CC(=O)O)C(C)C)[C@@H](C)CC)[C@@H](C)O)C(=O)N[C@@H](CCC(N)=O)C(=O)NCC(=O)N[C@H](C(=O)N[C@@H](CS)C(=O)N[C@@H](Cc1ccc(O)cc1)C(=O)N[C@@H](CCCNC(=N)N)C(=O)NCC(=O)N[C@@H](CCCCN)C(=O)N[C@@H](C)C(=O)N[C@@H](CCCCN)C(=O)N[C@@H](CS)C(=O)N[C@@H](CS)C(=O)N[C@@H](CCCCN)C(=O)O)[C@@H](C)O (H-DHYNCVSSGGQCLYSACPIFTKIQGTCYRGKAKCCK-OH),Activity,MDA-MB-231 [1],inactive
"CC[C@H](C)[C@@H]1NC(=O)[C@H](CCCCN)NC(=O)[C@H]([C@@H](C)O)NC(=O)[C@H](Cc2ccccc2)NC(=O)[C@H]([C@@H](C)CC)NC(=O)[C@@H]2CCCN2C(=O)[C@@H]2CSSC[C@@H]3NC(=O)[C@H](CCCCN)NC(=O)[C@H](C)NC(=O)[C@H](CCCCN)NC(=O)CNC(=O)[C@H](CCCNC(=N)N)NC(=O)[C@H](Cc4ccc(O)cc4)NC(=O)[C@H](CSSC[C@H](NC(=O)[C@H](CCC(N)=O)NC(=O)CNC(=O)CNC(=O)[C@H](CO)NC(=O)[C@H](CO)NC(=O)[C@H](C(C)C)NC(=O)[C@@H](NC(=O)[C@H](CC(N)=O)NC(=O)[C@H](Cc4ccc(O)cc4)NC(=O)[C@H](Cc4c[nH]cn4)NC(=O)[C@@H](N)CC(=O)O)CSSC[C@@H](C(=O)N[C@@H](CCCCN)C(=O)O)NC3=O)C(=O)N[C@@H](CC(C)C)C(=O)N[C@@H](Cc3ccc(O)cc3)C(=O)N[C@@H](CO)C(=O)N[C@@H](C)C(=O)N2)NC(=O)[C@H]([C@@H](C)O)NC(=O)CNC(=O)[C@H](CCC(N)=O)NC1=O (H-DHYNCVSSGGQCLYSACPIFTKIQGTCYRGKAKCCK-OH; disulfide 5-35, 12-27, 17-34)",IC50,[2],> 250 µM
same,IC50,DU-145 [3],0.25 µM
same,IC50,[4],84.5 µM
same,Activity,MDA-MB-231 [5],inactive
same,IC50,MDA-MB-231 [6],24.5 µM
same,Activity,[7],Non-Toxic
same,IC50,DU-145 [8],0.45 µM
same,Activity,PC-3 [9],63.4%
same,IC50,[10],> 250 µM
same,IC50,PC-3 [11],20 µM
same,Activity,MDA-MB-231 [12],Active
same,Activity,MDA-MB-231 [1],Dose-Dependent Effect
same,Activity,MDA-MB-231 [13],Active
same,IC50,DU-145 [14],5.8 µM
same,Activity,MDA-MB-231 [15],>90%
same,Activity,[16],Non-Toxic
same,IC50,PC-3 [17],0.95 µM
same,IC50,[18],89.5 µM
same,IC50,[19],78.6 µM
same,Activity,PC-3 [20],97.2%
same,Activity,MDA-MB-231 [21],Active
same,IC50,MDA-MB-231 [22],6.5 µM
same,IC50,[23],94.5 µM
same,IC50,PC-3 [24],26.5 µM
same,IC50,PC-3 [25],1.2 µM
same,Activity,[26],Non-Toxic
same,IC50,LNCaP [27],12.4 µM
same,IC50,MDA-MB-231 [28],3.8 µM
same,IC50,LNCaP [29],0.11 µM
same,IC50,LNCaP [30],0.15 µM
same,Activity,MDA-MB-231 [31],Active
CC(=O)O[C@@]12CO[C@@H]1C[C@H](O)[C@@]1(C)C(=O)[C@H](O)C3=C(C)[C@@H](OC(=O)[C@H](O)[C@@H](NC(=O)OC(C)(C)C)c4ccccc4)C[C@@](O)([C@@H](OC(=O)c4ccccc4)[C@H]21)C3(C)C [DOCETAXEL ANHYDROUS],IC50,[2],18.6 µM
same,IC50,MDA-MB-231 [6],38.9 µM
same,IC50,[10],16.5 µM
same,IC50,DU-145 [14],5.4 µM
same,IC50,PC-3 [24],12.5 µM
same,IC50,LNCaP [27],12.3 µM
COc1cccc2c1C(=O)c1c(O)c3c(c(O)c1C2=O)C[C@@](O)(C(=O)CO)C[C@@H]3O[C@H]1C[C@H](N)[C@H](O)[C@H](C)O1 [DOXORUBICIN],IC50,[2],6.8 µM
same,IC50,MDA-MB-231 [6],46.5 µM
same,IC50,[10],12.5 µM
same,IC50,DU-145 [14],12.4 µM
same,IC50,PC-3 [24],17.5 µM
same,IC50,LNCaP [27],1.07 µM
